Experiment [1] concerns IL-1β mRNA. Nature of the experiment: IL-1β gene expression by RT-qPCR in LPS-stimulated THP-1 macrophages. The format is cell-based, human. Conditions: 300 nM, 2 h after LPS, normalised to β-actin. As for the experimental part:
(§1) For the determination of biological activity, we used the human monocytic leukaemia cell line THP-1 (ECACC, Salisbury, UK). The cells were cultivated at 37°C in the RPMI 1640 medium supplemented with 2 mM L-glutamine, 10% FBS, 100 U/mL of penicillin and 100 µg/mL of streptomycin in a humidified atmosphere containing 5% CO2. Stabilized cells (3rd–15th passage) were split into microtitration plates to get a concentration of 500 000 cells/mL and the differentiation to macrophages was induced by phorbol myristate acetate (PMA) dissolved in dimethyl sulfoxide (DMSO) at the final concentration of 50 ng/ml, and the cells were incubated for 24 h. In comparison with monocytes, differentiated macrophages tend to adhere to the bottoms of the cultivation plates. For next 24 h the cells were incubated with a fresh complete RPMI medium, i.e. containing antibiotics and FBS, without PMA. The medium was then aspirated, and the cells were washed with PBS and cultivated for next 24 hours in serum-free RPMI 1640 medium. These prepared macrophages were used for the detection of inflammatory response.
(§2) In the order to evaluate the expression of TNF-α, IL-1β, and β-actin mRNA, total RNA was isolated directly from the LPS-stimulated THP-1 cells. THP-1 macrophages were pretreated with compounds 2, 5, and Auranofin at the concentration of 300 nM or the vehicle (0.1% DMSO) only. After 1 h of the incubation, the inflammatory response was induced by LPS [except for the control cells (CTRL)]. After 2 h of the incubation with LPS, the medium was aspirated and the total RNA was isolated directly from the cells in cultivation plates using a RealTime Ready Cell Lysis Kit (Roche), according to the manufacturer's instructions.
(§3) The gene expression was quantified by two-step reverse-transcription quantitative (real-time) PCR (RT-qPCR). The reverse transcription step was performed by Transcriptor Universal cDNA Master using cell lysate as a template. […] The results were normalized to the amount of ROX reference dye, and the change in gene expression was determined by the 2^−ΔΔCT method. […]

For experiment [2], the system named is TNF-α mRNA. The experiment can be described thus: TNF-α gene expression by RT-qPCR in LPS-stimulated THP-1 macrophages. In kind it is cell-based, human. Conditions: 300 nM, 2 h after LPS, normalised to β-actin. As to the method:
as §1, §2, §3

In experiment [3] the test system is IκB-α degradation (NF-κB signalling pathway). The experiment can be described thus: LPS-induced IκB-α degradation (Western blot) in THP-1 macrophages. The format is cell-based, human. Conditions: 300 nM, 30 min after LPS. As to the method:
Macrophage-like THP-1 cells were pretreated with the tested compounds and stimulated by LPS as was describe above. Thirty minutes after the addition of LPS, the medium was aspirated and cells were washed by cold phosphate buffer solution (PBS). Subsequently, the cells were collected using the lysis buffer [50 mM Tris-HCl pH 7.5, 1 mM EGTA, 1 mM EDTA, 1 mM sodium orthovanadate, 50 mM sodium fluoride, 5 mM sodium pyrophosphate, 270 mM sucrose, 0.1% (v/v) Triton X-100, and cOmplete Protease Inhibitor Cocktail (Roche, Germany)] and scraper. The lysis of cells was facilitated by a short (≈30 s) incubation in the ultrasonic water bath. The protein concentration was determined according to Bradford's method. For protein separation, 30 µg of protein was loaded onto the 12% polyacrylamide gel. […] The membranes were incubated with the primary anti-IκB-α antibody at the concentration ratio of 1∶500, or with the primary anti-β-actin at the concentration ration of 1∶5 000 at 4°C for 16 h. After washing, the secondary anti-mouse IgG antibody diluted 1∶2 000 was applied on the membranes and incubated at laboratory temperature (22°C) for 1 h. The amount of the bound secondary antibody was detected colorimetrically by an Opti-4CN Kit according to the manufacturer's manual.

The subject of experiment [4] is THP-1 monocytic leukaemia cells. Nature of the experiment: WST-1 in vitro cytotoxicity, THP-1. The format is cell-based, human. Conditions: 24 h treatment, WST-1, 0.16–10.00 µM; read-out: IC50±S.E., THP-1. As to the method:
Before the in vitro anti-inflammatory testing, in vitro cytotoxicity on human monocytic leukaemia cells (THP-1, ECACC no. 88081201) was determined using the WST-1 assay. The THP-1 cells (floating monocytes, 500 000 cells/mL) were incubated in 100 µL of the serum-free RPMI 1640 medium and seeded into 96-well plates in triplicate at 37°C. Measurements were taken 24 h after the treatment with the tested compounds dissolved in 0.1% DMSO in the concentration range of 0.16–10.00 µM. Viability was determined by the WST-1 test according to the manufacturer's manual. The amount of the formed formazan (which correlates to the number of metabolically active cells in the culture) was calculated as a percentage of the control cells, which were treated only with 0.1% DMSO and was set-up as 100%. The IC50 values of the tested compounds were calculated from the obtained data. The WST-1 assay was performed spectrophotometrically at 440 nm (FLUOstar Omega, BMG Labtech).
The cytotoxicity data were expressed as the percentage of viability, where 100% represented the treatments with vehicle (0.1% DMF or 0.1% DMSO). The cytotoxicity data from the cancer cell lines were acquired from three independent experiments (conducted in triplicate) using cells from different passages. The IC50 values were calculated from viability curves. The results are presented as arithmetic means±standard error of the mean (S.E.). The significance of the differences between the results was assessed by the ANOVA analysis with p<0.05 considered to be significant (QC Expert 3.2, Statistical software, TriloByte Ltd., Pardubice, Czech Republic).

In experiment [5] the test system is TNF-α secretion in LPS-stimulated macrophage-like THP-1 cells. The experiment can be described thus: LPS-induced TNF-α secretion in THP-1 macrophages (ELISA). In kind it is cell-based, human. Conditions: 300 nM, 1 h pretreatment, 24 h after LPS. As for the experimental part: as §1
(§4) Differentiated macrophages were pretreated with 300 nM solutions of the tested complexes, HLn, AuCl, [AuCl(PPh3)], PPh3 and Auranofin dissolved in DMSO (the final DMSO concentration was 0.1%) and with 0.1% DMSO solution itself (vehicle) for 1 h; the given concentrations of the tested compounds lack the cytotoxic effect (cell viability >94%) based on the results of WST-1 test. The inflammatory response in pretreated macrophages was triggered by the addition of 1.0 µg/mL lipopolysaccharide (LPS) dissolved in water, while the control cells (CTRL) remained without the LPS treatment.
(§5) Macrophages, which were pretreated with the tested compounds (complexes 1–5, HLn, AuCl, [AuCl(PPh3)], PPh3 and Auranofin) for 1 h, were incubated with LPS for next 24 h. After this period, the medium was collected and the concentration of TNF-α, and IL-1β was determined by the Instant ELISA Kit according to the manufactures' manual.
(§6) The statistically significant differences between individual groups during anti- inflammatory testing were evaluated using a one-way ANOVA test for statistical analysis, followed by Tukey's post-hoc test for multiple comparisons. GraphPad Prism 5.02 (GraphPad Software Inc., San Diego, CA, USA) was used to perform the analysis. The results are presented as arithmetic means±S.E. values.

Experiment [6] deals with IL-1β secretion in LPS-stimulated macrophage-like THP-1 cells. The experiment can be described thus: LPS-induced IL-1β secretion in THP-1 macrophages (ELISA). In kind it is cell-based, human. Conditions: 300 nM, 1 h pretreatment, 24 h after LPS. As to the method: as §1, §4, §5, §6
The subject of experiment [7] is human cancer cell lines (MCF7, HOS, A549, G361, HeLa, A2780, A2780R, 22Rv1). Nature of the experiment: MTT in vitro cytotoxicity, summary over the panel of human cancer cell lines. Conditions: 24 h, MTT; HAuCl4 except on G361; read-out: IC50 against all the cancer cell lines tested (inactive up to the stated concentration). The format is cell-based. As for the experimental part:
In vitro cytotoxic activity was determined by the MTT assay in human breast adenocarcinoma (MCF7; ECACC no. 86012803), human osteosarcoma (HOS; ECACC no. 87070202), lung carcinoma (A549; ECACC no. 86012804), malignant melanoma (G361; ECACC no. 88030401), cervix epitheloid carcinoma (HeLa; ECACC no. 93021013), ovarian carcinoma (A2780; ECACC no. 93112519), cisplatin-resistant ovarian carcinoma (A2780R; ECACC no. 93112517) and prostate carcinoma (22Rv1; ECACC no 105092802) cancer cell lines, purchased from European Collection of Cell Cultures (ECACC). The cells were cultured according to the ECACC instructions and they were maintained at 37°C and 5% CO2 in a humidified incubator. The primary culture of human hepatocytes (HEP220, batch number HEP220819) was obtained from Biopredic International (France). The culture medium was Williams and HAM's F-12 (1∶1) supplemented with penicillin, streptomycin, ascorbic acid, linoleic acid, holo-transferin, ethanolamine, glucagon, insulin, dexamethasone, pyruvate, glucose, glutamine, amphotericin. The medium was enriched for plating with 2% foetal calf serum (v/v). The medium was exchanged for a serum-free medium the day after and the culture was stabilized for additional 24 h. Thereafter, the cells were ready for treatments. The cultures were maintained at 37°C and 5% CO2 in a humidified incubator. The cells were treated with complexes 1–5 (at the concentration levels of 0.01, 0.1, 1.0, 5.0, 25.0, and 50.0 µM), starting compounds e.g. HL1–5, AuCl, and cisplatin (applied up to 50 µM) for 24 h, using multi-well culture plates of 96 wells. […]
The cytotoxicity data were expressed as the percentage of viability, where 100% represented the treatments with vehicle (0.1% DMF or 0.1% DMSO). […] The IC50 values were calculated from viability curves. […] The significance of the differences between the results was assessed by the ANOVA analysis with p<0.05 considered to be significant (QC Expert 3.2, Statistical software, TriloByte Ltd., Pardubice, Czech Republic).

Experiment [8] relates to G361 malignant melanoma cells. Nature of the experiment: MTT in vitro cytotoxicity, G361. The format is cell-based, human. Conditions: 24 h treatment, read-out: IC50±S.E., G361. As to the method:
In vitro cytotoxic activity was determined by the MTT assay in human breast adenocarcinoma (MCF7; ECACC no. 86012803), human osteosarcoma (HOS; ECACC no. 87070202), lung carcinoma (A549; ECACC no. 86012804), malignant melanoma (G361; ECACC no. 88030401), cervix epitheloid carcinoma (HeLa; ECACC no. 93021013), ovarian carcinoma (A2780; ECACC no. 93112519), cisplatin-resistant ovarian carcinoma (A2780R; […] ECACC no 105092802) cancer cell lines, purchased from European Collection of Cell Cultures (ECACC). […] The primary culture of human hepatocytes (HEP220, batch number HEP220819) was obtained from Biopredic International (France). The culture medium was Williams and HAM's F-12 (1∶1) supplemented with penicillin, streptomycin, ascorbic acid, linoleic acid, holo-transferin, ethanolamine, glucagon, insulin, dexamethasone, pyruvate, glucose, glutamine, amphotericin. The medium was enriched for plating with 2% foetal calf serum (v/v). The medium was exchanged for a serum-free medium the day after and the culture was stabilized for additional 24 h. Thereafter, the cells were ready for treatments. […] The MTT assay was performed spectrophotometrically at 540 nm (TECAN, Schoeller Instruments LLC). The cytotoxicity data were expressed as the percentage of viability, where 100% represented the treatments with vehicle (0.1% DMF or 0.1% DMSO). The cytotoxicity data from the cancer cell lines were acquired from three independent experiments (conducted in triplicate) using cells from different passages. The IC50 values were calculated from viability curves. The results are presented as arithmetic means±standard error of the mean (S.E.).

SMILES strings stand for the structures.

In the case of `CC[PH](CC)(CC)[Au][S][C@@H]1O[C@H](COC(C)=O)[C@@H](OC(C)=O)[C@H](OC(C)=O)[C@H]1OC(C)=O` [Auranofin, triethylphosphine-(2,3,4,6-tetra-O-acetyl-β-D-thiopyranosato)gold(I), reference compound], the “effect on IL-1β mRNA transcription” value in experiment [1] is “significantly reduce the transcription”. In experiment [2], the “effect on TNF-α mRNA transcription” value was “significantly reduce the transcription”. The “effect on LPS-induced IκB degradation” value in experiment [3] is “block moderately the IκB degradation”. The IC50 in experiment [4] is 0.9 ± 0.1 µM.

As for `[Au+].[Cl-]` [AuCl], the “effect on LPS-induced TNF-α secretion” value in experiment [5] is “none of the reference compounds, such as AuCl, HLn, [AuCl(PPh3)] and PPh3, exhibited any expected effect”. For the same molecule, in experiment [6], the “effect on LPS-induced IL-1β secretion” value was “decreased the production of IL-1β by a manner comparable to free ligands”. Moreover, the IC50 in experiment [7] was more than 50 µM.

`[Cl][Au-]([Cl])([Cl])[Cl].[H+]` [HAuCl4, reference compound]: the IC50 in experiment [8] was 38.1 ± 2.3 µM; in experiment [7], more than 50 µM.
